This test in a line: carrageenin-induced edema in the hind paw of the rat (modified Winter et al.). The class given is in vivo. The procedure:
The procedure used for measuring the inhibition of carrageenin-induced edema is a slight modification of the method of Winter et al., Proc. Soc. Explt. Biol. Med. 111: 544 (1962). The device used for measurement of the paw volume is an adaptation of the water displacement procedure described by Adamkiewicz et al., Can. J. Biochem. Physiol. 33: 332 (1955). The above compounds were studied for their effectiveness in preventing the edema caused by the intraplantar injection of 0.05 ml of a sterile 1.0% solution of carrageenin. Compounds were administered orally, except when indicated as intraperitoneally (i.p.), one hour prior to the injection of the carrageenin into the left hind paw of rats. At peak swelling time (3 hours) the volume of edema was calculated by differential paw volumes.
Table I (in which Ph=phenyl) sets forth results obtained at the indicated dosages with compounds (or their salts) of the formula [drawing 8]
Following the procedure set forth in Example 4, hydrated compounds according to the following formula were evaluated for antiinflammatory effect with the results shown in Table II: [drawing 9]
Certain of the compounds of the invention were further tested to determine their ED50 values. […] Typical results of these tests appear in Table III.
For orientation: Carrageenan injected into the paw causes an acute inflammation.

[1] abbreviates: Rattus norvegicus, po, 3 h, Table I, 50 mg/kg, oral, 1 h before carrageenin, 3 h, read-out: Reduction % (carrageenin edema).
The mark [2] stands for this setting: Rattus norvegicus, po, 3 h, Table I, 40 mg/kg, oral, 1 h before carrageenin, 3 h, read-out: Reduction % (carrageenin edema).
[3] abbreviates: Rattus norvegicus, po, 3 h, Table I, 25 mg/kg, oral, 1 h before carrageenin, 3 h, read-out: Reduction % (carrageenin edema).

Structures can show the parent of a compound that is named as a salt. Where two headings read alike, the source gives them in different places.

Consider `Cc1ccc(C2=CSC3=NCCN23)cc1C` [Compound 2], for which, under setting [1], the inhibition in vivo at 50 mg/kg is 27%.

For `CSC1=C(C(C)(C)C)N2CCN=C2S1` [Compound 3, 2-methylthio-3-t-butyl-5,6-dihydro-4H-imidazo-[2,1-b] thiazole hydrobromide], under setting [1], the inhibition in vivo at 50 mg/kg worked out at 26%.

`Brc1ccc(C2=CSC3=NCCN23)cc1` [Compound 7]: under setting [1], the inhibition in vivo at 50 mg/kg was 70%.

With `CC(C)(C)C1=CSC2=NCCN12` [Compound 11], the “Reduction (%) (carrageenin edema)” value (Table I, 50 mg/kg, oral, 1 h before carrageenin, 3 h, 50 mg/kg) is 48%.

On to `CC1CN2C(C(C)(C)C)=CSC2=N1` (centres unmarked) [Compound 12], for which, under setting [1], the inhibition in vivo at 50 mg/kg is 54%.

For the compound `CC1=CSC2=NC(C)CN12` (centres unmarked) [Compound 13], the inhibition in vivo at 50 mg/kg under setting [1] is 24%.

In the case of `CC1=C(c2ccccc2)N2CCN=C2S1` [Compound 14], under setting [1], the inhibition in vivo at 50 mg/kg was found to be 49%.

With `CC1=C(c2ccccc2)SC2=NCCN21` [Compound 15], under setting [1], the inhibition in vivo at 50 mg/kg amounted to 53%.

Turning to `CC1CN2C(c3ccc(Cl)c(Cl)c3)=CSC2=N1` (centres unmarked) [Compound 18], the inhibition in vivo at 50 mg/kg under setting [1] worked out at 42%.

Regarding `O=C(O)CC1=C(c2ccccc2)N2CCN=C2S1` [Compound 19, 3-phenyl-5,6-dihydro-4H-imidazo[2,1-b] thiazo-2-yl-acetic acid hydrobromide], the inhibition in vivo at 100 mg/kg (Rattus norvegicus, ip, 3 h, Table I, 100 mg/kg i.p., 1 h before carrageenin, 3 h, read-out: Reduction % (carrageenin edema)) was 24%.

For `Clc1ccc(C[N+]2=C3SC=C(c4ccccc4)N3CC2)cc1Cl` [Compound 20], where the note is “Rattus norvegicus, po, 3 h, Table I, 20 mg/kg, oral, 1 h before carrageenin, 3 h, read-out: Reduction % (carrageenin edema)”, the inhibition in vivo at 20 mg/kg turned out to be 36%.

As to `Brc1ccc(C2=CSC3=NCCN23)cc1` [Compound 21], the inhibition in vivo at 40 mg/kg under setting [2] amounted to 49%.

With `C#CC[N+]1=C2SC=C(c3ccc(Br)cc3)N2CC1` [Compound 22], the inhibition in vivo at 100 mg/kg (Rattus norvegicus, po, 3 h, Table I, 100 mg/kg, oral, 1 h before carrageenin, 3 h, read-out: Reduction % (carrageenin edema)) was determined as 36%.

As to `C#CC(C)[N+]1=C2SC=C(c3ccc(Br)cc3)N2CC1` (centres unmarked) [Compound 23], under setting [2], the inhibition in vivo at 40 mg/kg worked out at 27%.

Consider `ClCC=CC[N+]1=C2SC=C(c3ccc(Br)cc3)N2CC1` [Compound 24], for which the inhibition in vivo at 60 mg/kg (Rattus norvegicus, po, 3 h, Table I, 60 mg/kg, oral, 1 h before carrageenin, 3 h, read-out: Reduction % (carrageenin edema)) amounted to 20%.

Consider `CC1=CSC2=NCCN12` [Compound 25], for which the inhibition in vivo at 150 mg/kg (Rattus norvegicus, po, 3 h, Table I, 150 mg/kg, oral, 1 h before carrageenin, 3 h, read-out: Reduction % (carrageenin edema)) came to 44%.

In the case of `C#CC[N+]1=C2SC=C(C)N2CC1` [Compound 26], the inhibition in vivo at 40 mg/kg under setting [2] came to 31%.

With `C1=C(c2cc3ccccc3o2)N2CCN=C2S1` [Compound 27, 3-(2-benzofuranyl)-5,6-dihydro-4H-imidazo[2,1-b] thiazole], the inhibition in vivo at 40 mg/kg under setting [2] is 40%.

In the case of `Clc1ccc(C2=CSC3=NCCCN23)cc1` [Compound 28], under setting [3], the inhibition in vivo at 25 mg/kg is 29%.

Take `C1=C(c2ccccc2)N2CCCN=C2S1` [Compound 30]: the inhibition in vivo at 40 mg/kg under setting [2] was found to be 25%.

As for `CC1=C(c2ccccc2)N2CCCN=C2S1` [Compound 31], under setting [2], the inhibition in vivo at 40 mg/kg came to 48%.

As to `O=[N+]([O-])c1ccc(C2=CSC3=NCCCN23)cc1` [Compound 32], under setting [3], the inhibition in vivo at 25 mg/kg was found to be 20%.

Regarding `CC1=C(c2ccc(Cl)cc2)N2CCCN=C2S1` [Compound 33], the inhibition in vivo at 10 mg/kg (Rattus norvegicus, po, 3 h, Table I, 10 mg/kg, oral, 1 h before carrageenin, 3 h, read-out: Reduction % (carrageenin edema)) is 22%.

Turning to `OC1(c2ccccc2)CSC2=NCCN21` (centres unmarked) [Compound 34], the “Reduction (%) (carrageenin edema)” value (Table II, 100 mg/kg, oral) amounted to 70%.

For `CC1SC2=NCCN2C1(O)c1ccccc1` (centres unmarked) [Compound 35], under “Table II, 150 mg/kg, oral”, the “Reduction (%) (carrageenin edema)” value worked out at 68%.

Consider `OC1(c2ccc(Cl)cc2)CSC2=NCCN21` (centres unmarked) [Compound 36], for which the “Reduction (%) (carrageenin edema)” value (Table II, 25 mg/kg, oral) was 57%.

On to `OC1(c2ccccc2)CSC2=NCCCN21` (centres unmarked) [Compound 37], for which the “Reduction (%) (carrageenin edema)” value (Table II, 50 mg/kg, oral) is reported as 52%.

For `OC1(c2ccc(Cl)cc2)CSC2=NCCCN21` (centres unmarked) [Compound 38], the “Reduction (%) (carrageenin edema)” value (Table II, 100 mg/kg, oral) is recorded as 76%.

Turning to `COc1ccc(C2(O)CSC3=NCCCN32)cc1` (centres unmarked) [Compound 39], for the setting “Table II, 40 mg/kg, oral”, the “Reduction (%) (carrageenin edema)” value is reported as 27%.
